In ChEMBL document CHEMBL5321270, “Discovery of Pyrazolone Carbothioamide Derivatives as Inhibitors of the Pdr1-KIX Interaction for Combinational Treatment of Azole-Resistant Candidiasis” (J Med Chem, 2023):
Converted amounts (≈) assume the structure as drawn. The source made the active and inactive calls. No cut-off for these calls is given here.

Experiments:
Nakaseomyces glabratus [1] = assay: Antifungal activity against fluconazole-sensitive Candida glabrata 7669 assessed as fungal growth inhibition incubated for 48 hrs by microplate reader assay; assay type: functional, organism-based
Nakaseomyces glabratus [2] = assay: Antifungal activity against fluconazole-resistant Candida glabrata 0161 assessed as fungal growth inhibition incubated for 48 hrs by microplate reader assay; assay type: functional
[3] = Inhibition of fluorescent probe FITC tagged PDR1-KIX domain (unknown origin) protein-protein interaction assessed as inhibition constant incubated for 2 hrs by fluorescence polarization binding assay
Nakaseomyces glabratus [4] = assay: Antifungal activity against fluconazole-resistant Candida glabrata 8535 assessed as fungal growth inhibition incubated for 48 hrs by microplate reader assay; assay type: functional
Candida albicans [5] = assay: Antifungal activity against Candida albicans 5314 assessed as fungal growth inhibition incubated for 48 hrs by microplate reader assay; assay type: functional, organism-based
Candida albicans [6] = assay: Antifungal activity against Candida albicans 103 assessed as fungal growth inhibition incubated for 48 hrs by microplate reader assay; assay type: functional, organism-based
Nakaseomyces glabratus [7] = assay: Antifungal activity against fluconazole-resistant Candida glabrata 9256 assessed as fungal growth inhibition incubated for 48 hrs by microplate reader assay; assay type: functional
Nakaseomyces glabratus [8] = assay: Synergistic antifungal activity against fluconazole-resistant Candida glabrata 0161 assessed as fractional inhibitory concentration index incubated for 48 hrs in presence of fluconazole by checkerboard microdilution method; assay type: functional
Nakaseomyces glabratus [9] = assay: Antifungal activity against fluconazole-resistant Candida glabrata 0161 assessed as fluconazole fractional inhibitory concentration incubated for 48 hrs in presence of fluconazole by microplate reader assay; assay type: functional
Nakaseomyces glabratus [10] = assay: Antifungal activity against fluconazole-resistant Candida glabrata 0161 assessed as fractional inhibitory concentration incubated for 48 hrs in presence of fluconazole by microplate reader assay; assay type: functional
Candida albicans [11] = assay: Antifungal activity against Candida albicans 0029 assessed as fungal growth inhibition incubated for 48 hrs by microplate reader assay; assay type: functional, organism-based
Trichophyton rubrum = assay: Antifungal activity against Trichophyton rubrum assessed as fungal growth inhibition incubated for 48 hrs by microplate reader assay; assay type: functional
Cryptococcus neoformans = assay: Antifungal activity against Cryptococcus neoformans H99 assessed as fungal growth inhibition incubated for 48 hrs by microplate reader assay; assay type: functional
Candida tropicalis = assay: Antifungal activity against Candida tropicalis 10186 assessed as fungal growth inhibition incubated for 48 hrs by microplate reader assay; assay type: functional
[Candida] auris [12] = Antifungal activity against Candida auris 0030 assessed as fungal growth inhibition incubated for 48 hrs by microplate reader assay; assay type: functional; conditions: Candidozyma auris
Candida albicans [13] = assay: Antifungal activity against Candida albicans assessed as fungal growth inhibition incubated for 48 hrs by microplate reader assay; assay type: functional
[Candida] auris [14] = Antifungal activity against Candida auris 15448 assessed as fungal growth inhibition incubated for 48 hrs by microplate reader assay; assay type: functional; conditions: Candidozyma auris
Aspergillus fumigatus = assay: Antifungal activity against Aspergillus fumigatus 7544 assessed as fungal growth inhibition incubated for 48 hrs by microplate reader assay; assay type: functional
Nannizzia gypsea = assay: Antifungal activity against Microsporum gypseum assessed as fungal growth inhibition incubated for 48 hrs by microplate reader assay; assay type: functional
Candida parapsilosis = assay: Antifungal activity against Candida parapsilosis 20090 assessed as fungal growth inhibition incubated for 48 hrs by microplate reader assay; assay type: functional; conditions: Lodderomyces parapsilosis

Row | SMILES | Activity (Nakaseomyces glabratus [1]) | MIC (Nakaseomyces glabratus [2]) [µg/mL] | Ki [3] [µM] | Activity (Nakaseomyces glabratus [4]) | Activity (Candida albicans [5]) | Activity (Candida albicans [6]) | Activity (Nakaseomyces glabratus [7]) | fractional inhibitory concentration index (FICI) (Nakaseomyces glabratus [8]) | fluconazole MIC in combination (Nakaseomyces glabratus [9]) [µg/mL] | FIC (Nakaseomyces glabratus [10]) [µg/mL] | Activity (Candida albicans [11]) | also measured
1 | N#CCC(=O)NNC(=S)Nc1ccc(Cl)nc1 | inactive | 32 (≈ 119 µM) | 54.9 | inactive | inactive | inactive | inactive | 0.38 | 8 | 4 | inactive | –
2 | Nc1cc(=O)n(C(=S)Nc2ccccc2Cl)[nH]1 | – | 0.5 (≈ 1.86 µM) | 85.8 | – | – | – | – | 0.76 | 16 | 0.13 | – | MIC (Trichophyton rubrum): 1 µg/mL (≈ 3.72 µM); MIC (Cryptococcus neoformans): 0.063 µg/mL (≈ 0.234 µM); MIC (Candida tropicalis): 4 µg/mL (≈ 14.9 µM); MIC ([Candida] auris [12]): 2 µg/mL (≈ 7.44 µM); MIC (Candida albicans [13]): 4 µg/mL (≈ 14.9 µM); MIC ([Candida] auris [14]): 2 µg/mL (≈ 7.44 µM); MIC (Aspergillus fumigatus): 16 µg/mL (≈ 59.5 µM); MIC (Nannizzia gypsea): 1 µg/mL (≈ 3.72 µM); MIC (Nakaseomyces glabratus [4]): 0.25 µg/mL (≈ 0.93 µM); MIC (Nakaseomyces glabratus [7]): 0.25 µg/mL (≈ 0.93 µM); MIC (Candida parapsilosis): 4 µg/mL (≈ 14.9 µM)
3 | N#CCC(=O)NNC(=S)Nc1ccc(I)cc1 | inactive | 16 (≈ 44.4 µM) | 153 | inactive | inactive | inactive | inactive | 0.25 | 4 | 2 | inactive | –
4 | N#CCC(=O)NNC(=S)Nc1ccc(Cl)cc1Cl | inactive | 16 (≈ 52.8 µM) | 37.3 | inactive | inactive | inactive | inactive | 0.56 | 2 | 8 | inactive | –
5 | N#CCC(=O)NNC(=S)Nc1cccc(Cl)c1Cl | inactive | 16 (≈ 52.8 µM) | 37.1 | inactive | inactive | inactive | inactive | 0.56 | 2 | 8 | inactive | –
6 | Nc1cc(=O)n(C(=S)Nc2ccc(Cl)nc2)[nH]1 | – | 0.5 (≈ 1.85 µM) | 144 | – | – | – | – | 0.52 | 0.5 | 0.25 | – | MIC (Trichophyton rubrum): 1 µg/mL (≈ 3.71 µM); MIC (Cryptococcus neoformans): 0.063 µg/mL (≈ 0.234 µM); MIC (Candida tropicalis): 4 µg/mL (≈ 14.8 µM); MIC ([Candida] auris [12]): 2 µg/mL (≈ 7.42 µM); MIC (Candida albicans [13]): 4 µg/mL (≈ 14.8 µM); MIC ([Candida] auris [14]): 2 µg/mL (≈ 7.42 µM); MIC (Aspergillus fumigatus): 16 µg/mL (≈ 59.3 µM); MIC (Nannizzia gypsea): 1 µg/mL (≈ 3.71 µM); MIC (Nakaseomyces glabratus [4]): 0.25 µg/mL (≈ 0.927 µM); MIC (Nakaseomyces glabratus [7]): 0.25 µg/mL (≈ 0.927 µM); MIC (Candida parapsilosis): 4 µg/mL (≈ 14.8 µM)
7 | N#CCC(=O)NNC(=S)Nc1ccc2c(c1)CCC2 | inactive | 16 (≈ 58.3 µM) | 256 | inactive | inactive | inactive | inactive | 0.53 | 1 | 8 | inactive | –
8 | COc1ccc(NC(=S)NNC(=O)CC#N)cc1 | inactive | > 64 | 348 | inactive | inactive | inactive | inactive | 0.53 | 16 | 2 | inactive | –
9 | N#CCC(=O)NNC(=S)Nc1ccccc1Cl | inactive | 32 (≈ 119 µM) | 175 | inactive | inactive | inactive | inactive | 0.56 | 2 | 16 | inactive | –
10 | N#CCC(=O)NNC(=S)Nc1ccc2[nH]ccc2c1 | inactive | > 64 | 470 | inactive | inactive | inactive | inactive | 0.53 | 16 | 2 | inactive | –
11 | Cc1ccc(NC(=S)NNC(=O)CC#N)cc1 | inactive | 64 (≈ 258 µM) | 476 | inactive | inactive | inactive | inactive | 0.53 | 16 | 2 | inactive | –
12 | N#CCC(=O)NNC(=O)Nc1cccc(Cl)c1 | inactive | > 64 | 119 | inactive | inactive | inactive | inactive | 0.53 | 16 | 2 | inactive | –
13 | N#CCC(=O)NNC(=S)Nc1ccc(N2CCOCC2)cc1 | inactive | 16 (≈ 50.1 µM) | 622 | inactive | inactive | inactive | inactive | 0.52 | 0.5 | 8 | inactive | –
14 | N#CCC(=O)NNC(=S)Nc1ccc(Cl)cc1 | inactive | 64 (≈ 238 µM) | 139 | inactive | inactive | inactive | inactive | 0.53 | 16 | 2 | inactive | –
15 | N#CCC(=O)NNC(=O)Nc1ccc(Cl)cc1 | inactive | 64 (≈ 253 µM) | 275 | inactive | inactive | inactive | inactive | 0.56 | 16 | 4 | inactive | –
